Experimental data from patent publication US20140024663A1, “ATB(0,+) AMINO ACID TRANSPORTER AS A DRUG TARGET FOR TREATMENT OF ESTROGEN RECEPTOR-POSITIVE BREAST CANCER” (GEORGIA HEALTH SCIENCES UNIVERSITY RESEARCH INSTITUTE, INC., priority 2012, published 2014).

Columns and labels:
MCF7 cells [1] = test: Analysis of autophagy (LC3 localization, electron microscopy, autophagosomal proteolysis, GFP-LC3); format: cell-based, human; settings: 48 h
Description: FIGS. 6A to 6C. Effects of SLC6A14 blockade with α-MT in breast cancer cells. In FIG. 6A, MCF10A (a non-malignant mammary epithelial cell line), MCF7 (an ER-positive breast cancer cell line), and MB231 (an ER-negative breast cancer cell line) cells were treated with or without 2.5 mM α-MT for 24, 48, or 72 h and then used for analysis of asparagine synthetase (ASNS) and CHOP mRNA levels. In FIG. 6B, MCF7, MB231 and MCF10A cells were treated with or without 2.5 mM α-MT for 48 h and then used for immunocytochemical analysis of the constitutively expressed LC-3. In FIG. 6C, MCF7 cells were treated with (“b” and “c”) or without (“a”) α-MT (2.5 mM) for 48 h and then used for electron microscopy. Arrows indicate sequestration of cytoplasm and organelles in pre-autophagosomes and autophagosome, and the asterisk indicates condensed chromatin. N, nucleus.
FIGS. 7A and 7B. Induction of autophagy in MCF7 cells by α-MT. […] The concentrations of α-MT and 3-MA, when present, were 2.5 mM and 10 mM. The treatment time was 48 h. The extent of proteolysis was determined by the radioactivity present in the protein-free supernatant. […] In FIG. 7B, MCF7 cells were transfected with an GFP-LC3 expression plasmid, and 24 h later, the cells were treated with or without α-MT (2.5 mM) in the presence or absence of 3-MA (10 mM) for 48 h. At the end of the treatment, cells were fixed, and the percent of cells with punctate localization of the ectopically expressed GFP-LC3 was quantified. “a” represents compared to control; “b” represents compared to treatment with α-MT alone; and “c” represents compared to treatment with […]; *, p<0.001.
Analysis of autophagy. Autophagy was analyzed as described previously (Periyasamy-Thandavan et al., 2010, Autophagy; 6:19-35; and Samaddar et al., 2008, Mol Cancer Ther; 7:2977-2987) by monitoring the localization pattern of constitutively expressed LC3 as well as that of ectopically expressed GFP-LC3. In the case of the constitutively expressed LC3, cells were treated without or with α-MT, and then used for immunocytochemical analysis of LC3 localization pattern. For ectopically expressed LC3, cells were transfected with a GFP-LC3 expression plasmid. Briefly, cells were plated on a coverslip to reach ˜50% confluence and transfection of these cells was done with 1 μg of the plasmid using FuGENE transfection reagent (Roche, Nutley, N.J.). […] At the end of the treatment, cells were fixed with 4% paraformaldehyde and examined by fluorescence microscopy to count the number of cells with punctate GFP-LC3. Autophagosomal proteolysis was quantified as described previously (Periyasamy-Thandavan et al., 2010, Autophagy; 6:19-35). […]

MB231 cells = test: Cell death by propidium iodide staining and FACS cell cycle analysis; format: cell-based, human; settings: MB231, α-MT 2.5 mM and 3-MA 10 mM, either alone or together, 48 h
Description: (§1) FIGS. 9A to 9D. Influence of α-MT on mTOR activity In FIG. 9A, MCF7 and MB231 cells were treated without or with α-MT (2.5 mM) for 24 h, 48 h, or 72 h, and then the cell lysates were used for western blot. Influence of α-MT with or without 3-MA on cell death. In FIG. 9B, MCF7, MB231, and MCF10A cells were treated for 48 h without or with α-MT (2.5 mM), 3-MA (10 mM), or α-MT (2.5 mM) plus 3-MA (10 mM), and then analyzed for cell death by propidium iodide (PI) staining and FACS-based cell cycle analysis. In FIG. 9C, MCF7 cells were treated for 48 h without or with α-MT (2.5 mM), 3-MA (10 mM), or α-MT (2.5 mM) plus 3-MA (10 mM), and then analyzed for apoptotic cell death by annexin V labeling. In FIG. 9D, MCF7 and MB231 cells were treated without or with 2.5 mM α-MT for 24 h, 48 h, or 72 h. Cell lysates were then used for western blot analysis of lamin A degradation product using an antibody that recognizes specifically the proteolytic cleavage product. β-Actin was used as an internal control.
(§2) Apoptosis assay. Fluorescence-activated cell sorting (FACS) was used to monitor cell death. MCF7 cells were treated with or without α-MT, 3-MA, or α-MT plus 3-MA. Control and treated cells were then fixed in 50% ethanol, treated with 0.1% sodium citrate, 1 mg/ml RNase A, and 50 μg/ml propidium iodide, and then subjected to FACS analysis (FACS Caliber, Becton Dickinson). FITC-labeled annexin V was used to differentiate apoptotic cell death from necrotic cell death.

MCF10A cells = test: as above; format: cell-based, human; settings: α-MT 2.5 mM and 3-MA 10 mM, either alone or together, 48 h
Description: as §1, §2

MCF7 cells [2] = test: Apoptotic cell death by annexin V labeling; format: cell-based, human; settings: 48 h
Description: as §1, §2

Human SLC6A14 = molecular target: T1, Human SLC6A14 (Homo sapiens, UniProt Q9UN76); test: SLC6A14 transport function in X. laevis oocytes (two-microelectrode voltage-clamp); format: cell-based; settings: for Hill coefficient of Na+-activation kinetics (number of Na+ involved in the activation process): SLC6A14-mediated transport, amino acid 1 mM, Cl- constant at 100 mM, three oocytes; for inward currents on perifusion of SLC6A14-expressing oocytes: amino acid 100 M (so in the source), in the presence of NaCl
T1 construct: expressed in transfected cells; host or cells: Xenopus laevis oocytes, microinjected with human SLC6A14 cRNA
T1 sequence (Q9UN76 1-642): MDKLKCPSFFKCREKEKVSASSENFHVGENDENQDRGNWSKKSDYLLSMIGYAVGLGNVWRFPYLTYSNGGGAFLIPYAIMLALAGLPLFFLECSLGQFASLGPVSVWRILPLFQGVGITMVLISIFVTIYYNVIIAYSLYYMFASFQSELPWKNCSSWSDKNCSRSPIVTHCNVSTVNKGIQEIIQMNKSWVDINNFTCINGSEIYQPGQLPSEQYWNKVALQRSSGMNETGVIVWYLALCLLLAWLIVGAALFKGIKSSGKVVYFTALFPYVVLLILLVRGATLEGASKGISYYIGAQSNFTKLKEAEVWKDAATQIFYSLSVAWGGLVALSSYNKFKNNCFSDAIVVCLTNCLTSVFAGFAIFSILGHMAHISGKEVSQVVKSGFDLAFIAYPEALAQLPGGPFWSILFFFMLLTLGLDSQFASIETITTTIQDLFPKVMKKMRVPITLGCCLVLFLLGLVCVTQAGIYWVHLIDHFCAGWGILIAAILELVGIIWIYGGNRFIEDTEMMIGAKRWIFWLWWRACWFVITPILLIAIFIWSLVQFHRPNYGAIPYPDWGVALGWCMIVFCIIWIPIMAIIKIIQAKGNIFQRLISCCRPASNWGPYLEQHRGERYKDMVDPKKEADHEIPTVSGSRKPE
Text: FIGS. 3A and 3B. Natactivation kinetics of SLC6A14-mediated transport of leucine (FIG. 3A) and arginine and glutamine (FIG. 3B). Human SLC6A14 was expressed heterologously in X. laevis oocytes by microinjection of cRNA. Four days following injection, oocytes were used for electrophysiological studies using the two-microelectrode voltage-clamp method. […] Since the expression levels varied from oocyte to oocyte resulting in varying magnitudes of amino acid-induced currents, the currents were normalized by taking the magnitude of the currents induced at 100 mM Na^+ as 1 in each oocyte and calculating the magnitude of the currents induced at other concentrations of Na^+ as a fraction of this maximal current. The experiments were done with three different oocytes and the results are given as means±SE. Insets, Hill plots.
FIG. 4. Cl^−-activation kinetics of SLC6A14-mediated transport of leucine, arginine, and glutamine. […] The experiments were done with three different oocytes and the results are given as means±SE.
FIGS. 5A to 5C. Blockade of SLC6A14-mediated transport of leucine (FIG. 5A), glutamine (FIG. 5B), and arginine (FIG. 5C) by α-MT. Oocytes injected with human SLC6A14 cRNA were perifused with 100 µM leucine, 100 μM glutamine, or 100 μM arginine under varying experimental conditions as indicated.
Analysis of SLC6A14 transport function in X. laevis oocytes. SLC6A14-mediated transport of leucine, glutamine, and arginine and its blockade by α-MT were studied using the X. laevis oocyte heterologous expression system as described previously (Hatanaka et al., 2001, J Clin Invest; 107:1035-1043; and Karunakaran et al., 2008, Biochem J; 414:343-355). Human cloned SLC6A14 cDNA was used in these studies.

SMILES	inhibition of α-MT-induced proteolysis of 14C-labeled proteins (MCF7 cells [1]; MCF7, cotreatment 3-MA 10 mM with α-MT 2.5 mM)	block of autophagy induced by α-MT (MCF7 cells [1]; MCF7 transfected with GFP-LC3, 3-MA 10 mM plus α-MT 2.5 mM) [%]	effect on cell death (MB231 cells)	effect on cell death (MCF10A cells)	apoptotic cell death by annexin V labeling (MCF7 cells [2]; MCF7, 3-MA 10 mM combined with α-MT 2.5 mM, compared with either agent alone)	apoptotic cell death by annexin V labeling (MCF7 cells [2]; MCF7, single agent (α-MT 2.5 mM or 3-MA 10 mM))	Hill coefficient of Na+-activation kinetics (number of Na+ involved in the activation process) (Human SLC6A14)	inward currents on perifusion of SLC6A14-expressing oocytes (Human SLC6A14)
Cn1cnc(N)c2ncnc1-2 [3-MA, 3-methyladenine, reference compound]	inhibited significantly	> 90	very little, if any, effect	very little, if any, effect	much greater	significant apoptosis		
N=C(N)NCCC[C@H](N)C(=O)O [arginine]							2.1	induced inward currents
NC(=O)CC[C@H](N)C(=O)O [glutamine]							2.4	induced inward currents
CC(C)C[C@H](N)C(=O)O [leucine]							2.2	induced inward currents
